Reference: patent US20060111447A1, “Inhibiting progressive cognitive impairment” (priority 2002, published 2006)
Like-named read-outs stand apart in the source and are kept apart here.

How the values were obtained:
sAPPα = sAPPα levels in SY5Y neuroblastoma cells (6E10 immunoreactivity, Western blot); format: cell-based; conditions: 1 μM and 5 μM
Aβ40 [1] = conditions: CHO cells with APPswe and hCOX-2, nimesulide concentrations down to 10^−12 M
Excerpt: FIG. 10A-C. […] (C) Aβ42 levels in CHO cells transfected with APPswe and LacZ (open bars) or with APPswe and hCOX-2 (filled bars). Data are expressed as means±S.E.M. (percent of control LacZ transfection from three independent studies).
Using an adenovirus vector, hCOX-2 was transfected and expressed in CHO cells which had been stably transfected with APPswe (see above).

PGE2 = conditions: mice, same brain, nimesulide 1500 mg/kg of diet for three months
in vivo = conditions: B6SJ1, mouse, brain relative to serum, oral, 1500 mg/kg of diet, level of nimesulide in the brain relative to serum levels, mice, nimesulide 1500 mg/kg of diet for three months, brain parenchyma
[2] = mice
γ-secretase [3] = tested on: γ-secretase
Method: (§1) FIG. 11A-B. CHO cells were transfected with APPswe and LacZ (open bars) or with APPswe and hCOX-2(filled bars), as in FIG. 10A-C.
CHO cells were transfected with APPswe and LacZ (open bars) or with APPswe and hCOX-2 (filled bars), as in the preceding Section 11, and γ-secretase and Aβ42 levels were measured.

clinical = conditions: human, po, 100 mg twice daily
Method: A tolerability study was performed in elderly human subjects (Aisen et al., 2002, Neurology 58(7):1050-1054).

[4] = cited from earlier work
Aβ42 [5] = tested on: Aβ42
Excerpt: as §1

Aβ42 [6] = conditions: CHO-APPswe cells, 0.1 micromolar, 24 hours
Method: (§2) The amount of amyloid β peptides produced was measured by an ELISA assay from BioSource (Camarillo, Calif.). Samples were diluted 1:10 in buffer (0.05% (v/v) Tween-20, 1 mM Pefabloc protease inhibitors) followed by centrifugation for 20 minutes at 4° C. Total Aβ40 or Aβ42 were measured by sandwich ELISA following the manufacturer's instructions.

Aβ40 [7] = conditions: CHO-APPswe cells, 0.1 micromolar, 24 hours
Method: as §2

complement ClqB = conditions: in vivo; cited from earlier work
γ-secretase [8] = conditions: CHO-APPswe cells, 0.1 micromolar, 24 hours
[9] = CHO-APPswe cells transfected with hCOX-2, 10^−9 molar

Row | Structure (SMILES) | levels of sAPPα relative to controls (6E10 immunoreactivity) (sAPPα) | effect on hCOX-2 mediated increase in Aβ40 levels (Aβ40 [1]) | decrease of PGE2 content (PGE2) | Kp at 3 months (in vivo) | necropsy findings ([2]; nimesulide 1500 mg/kg of diet (50 mg/kg per day) for 3 months) | tolerability ([2]; nimesulide 1500 mg/kg of diet for 3 months) | effect on hCOX-2 mediated increase of γ-secretase activity (γ-secretase [3]; [9]) | additional decrease of γ-secretase levels (γ-secretase [3]; both hCOX-2 and LacZ-transfected CHO-APPswe cells, 10^−6 molar) | concentration at 24 weeks (clinical; brain) [µM] | concentration at 24 weeks (clinical; serum) [µM] | tolerability, long term treatment ([4]; clinical study, up to 104 weeks) | cognitive benefit in AD patients ([4]; twelve-week clinical trial) | tolerability in AD patients ([4]; twelve-week clinical trial) | effect on hCOX-2 increased Aβ42 concentration (Aβ42 [5]; CHO-APPswe cells transfected with hCOX-2, 10^−6 molar) | effect on hCOX-2 increased Aβ42 concentration (Aβ42 [5]; [9]) | decrease of the amount of Aβ42 (Aβ42 [6]) | decrease of the amount of Aβ40 (Aβ40 [7]) | effect on hCOX-2 induced increase of ClqB levels in the brain (complement ClqB) | inhibition of γ-secretase activity (γ-secretase [8])
1 | CS(=O)(=O)c1ccc(C2=C(c3ccccc3)C(=O)OC2)cc1 [Rofecoxib] | decreased |  |  |  |  |  |  |  |  |  |  |  |  |  |  |  |  |  | 
2 | CS(=O)(=O)Nc1ccc([N+](=O)[O-])cc1Oc1ccccc1 [nimesulide, 4-nitro-2-phenoxymethanesulfonanilide] |  | virtually nullified | approximately 50% | ~0.1 | did not demonstrate any gross alterations or renal or intestinal abnormalities | well tolerated | decreased to control levels | 10-15% | ~1 | ~10 | well tolerated | no cognitive benefit was observed | well tolerated | decreased to essentially control levels | slightly decreased | 20-25% | 20-25% | able to block that increase | approximately 40%
